# According to patent US20250034216A1, “STEREOSELECTIVE COVALENT LIGANDS FOR ONCOGENIC AND IMMUNOLOGICAL PROTEINS” (The Scripps Research Institute, priority 2021, published 2025):
# Assays:
# Assay in all cases: IA-DTB cysteine engagement
# Assay type in all cases: binding
# ABHD16A_C205 = target: T1, ABHD16A_C205 (Homo sapiens, UniProt O95870); conditions: 22Rv1 cells, relative to DMSO; for % engagement ABHD16A_C205: 20 μM probe, 1 h; for % engagement ABHD16A_205: 5 μM probe, 1 h (FIG. 5B)
# T1 construct: endogenous in cells; host or cells: 22Rv1
# T1 sequence (O95870 1-558): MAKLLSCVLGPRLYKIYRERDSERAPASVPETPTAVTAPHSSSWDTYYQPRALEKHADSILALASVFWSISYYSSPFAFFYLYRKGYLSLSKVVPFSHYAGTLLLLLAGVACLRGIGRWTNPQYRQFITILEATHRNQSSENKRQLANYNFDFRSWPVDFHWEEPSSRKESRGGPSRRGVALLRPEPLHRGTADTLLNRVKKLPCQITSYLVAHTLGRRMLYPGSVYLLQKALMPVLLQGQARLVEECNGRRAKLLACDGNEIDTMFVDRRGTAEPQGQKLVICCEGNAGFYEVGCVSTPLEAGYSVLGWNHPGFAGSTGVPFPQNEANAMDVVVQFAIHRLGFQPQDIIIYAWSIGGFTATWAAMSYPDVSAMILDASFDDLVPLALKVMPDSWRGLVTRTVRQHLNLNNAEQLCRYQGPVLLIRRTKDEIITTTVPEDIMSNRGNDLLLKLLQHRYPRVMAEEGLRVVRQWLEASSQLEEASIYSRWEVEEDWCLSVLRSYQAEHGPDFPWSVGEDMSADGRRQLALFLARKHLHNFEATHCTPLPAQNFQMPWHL
# How it was run: (§1)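 Cells were treated in situ with electrophilic probes, then lysed, and the lysates (2 mg/mL protein) were labeled with IA-DTB for 1 h at ambient temperature. After reduction, alkylation and trypsin digestion, labeled peptides were streptavidin-enriched, TMT-labeled and fractionated. Engagement ratios are probe vs DMSO reporter intensities, averaged across replicates.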
# CDKAL1_C556 = target: T2, CDKAL1_C556 (Homo sapiens, UniProt Q5VV42); conditions: 22Rv1 cells, relative to DMSO; for % engagement CDKAL1_C556: 20 μM probe, 1 h; for % engagement CDKAL1_556: 5 μM probe, 1 h (FIG. 5B)
# T2 construct: endogenous in cells; host or cells: 22Rv1
# T2 sequence (Q5VV42 1-579): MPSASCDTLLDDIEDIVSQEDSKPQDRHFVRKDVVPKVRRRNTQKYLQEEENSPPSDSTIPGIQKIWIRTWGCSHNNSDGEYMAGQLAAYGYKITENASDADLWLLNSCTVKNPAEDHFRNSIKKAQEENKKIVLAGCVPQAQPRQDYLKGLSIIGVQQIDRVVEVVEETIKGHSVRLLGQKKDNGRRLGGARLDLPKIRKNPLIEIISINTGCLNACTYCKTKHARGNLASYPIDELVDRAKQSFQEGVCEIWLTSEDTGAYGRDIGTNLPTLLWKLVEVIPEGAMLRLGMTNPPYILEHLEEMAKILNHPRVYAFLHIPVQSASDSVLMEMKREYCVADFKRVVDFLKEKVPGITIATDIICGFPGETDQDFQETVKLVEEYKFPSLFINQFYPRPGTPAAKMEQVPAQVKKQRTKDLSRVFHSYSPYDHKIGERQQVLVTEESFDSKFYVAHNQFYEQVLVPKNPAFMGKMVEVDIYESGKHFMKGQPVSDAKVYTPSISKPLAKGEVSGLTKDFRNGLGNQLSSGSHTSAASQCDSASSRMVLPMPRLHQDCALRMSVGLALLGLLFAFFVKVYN
# How it was run: as §1
# RAB40B_C77 = target: T3, RAB40B_C77 (Homo sapiens, UniProt Q12829); conditions: 22Rv1 cells, 20 μM probe, 1 h, relative to DMSO
# T3 construct: endogenous in cells; host or cells: 22Rv1
# T3 sequence (Q12829 1-278): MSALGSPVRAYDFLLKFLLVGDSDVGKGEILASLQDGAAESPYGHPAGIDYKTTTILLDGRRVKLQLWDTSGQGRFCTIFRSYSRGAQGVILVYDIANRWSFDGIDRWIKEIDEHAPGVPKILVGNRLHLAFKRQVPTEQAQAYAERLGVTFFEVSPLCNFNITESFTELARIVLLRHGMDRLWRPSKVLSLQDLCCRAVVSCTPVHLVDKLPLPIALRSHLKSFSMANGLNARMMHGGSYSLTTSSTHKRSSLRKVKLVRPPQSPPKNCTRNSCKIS
# How it was run: as §1
% engagement ABHD16A_C205 (ABHD16A_C205) [%],% engagement CDKAL1_C556 (CDKAL1_C556) [%],% engagement RAB40B_C77 (RAB40B_C77) [%],% engagement ABHD16A_205 (ABHD16A_C205) [%],% engagement CDKAL1_556 (CDKAL1_C556) [%],SMILES
67.75,59.5,100,–,–,"C=CC(=O)N1C[C@@H](c2ccc(Br)cc2)[C@H]1C(=O)Nc1cccc2cccnc12 [MY-1A, (2S,3R)-1-acryloyl-3-(4-bromophenyl)-N-(quinolin-8-yl)azetidine-2-carboxamide]"
80.25,91,100,83.67,79.33,"C=CC(=O)N1C[C@H](c2ccc(Br)cc2)[C@@H]1C(=O)Nc1cccc2cccnc12 [MY-1B, (2R,3S)-1-acryloyl-3-(4-bromophenyl)-N-(quinolin-8-yl)azetidine-2-carboxamide]"
73.25,88.5,−39,–,–,"C=CC(=O)N1C[C@H](c2ccc(Br)cc2)[C@H]1C(=O)Nc1cccc2cccnc12 [MY-3A, (2S,3S)-1-acryloyl-3-(4-bromophenyl)-N-(quinolin-8-yl)azetidine-2-carboxamide]"
77.25,89,12.5,–,–,"C=CC(=O)N1C[C@H](c2ccc(Br)cc2)[C@H]1C(=O)Nc1cccc2cccnc12 [MY-3B, (2S,3S)-1-acryloyl-3-(4-bromophenyl)-N-(quinolin-8-yl)azetidine-2-carboxamide]"
–,–,–,62.50,67.00,"CC#CC(=O)N1C[C@H](c2ccc(Br)cc2)[C@@H]1C(=O)Nc1cccc2cccnc12 [MY-45B, (2R,3S)-3-(4-bromophenyl)-1-(but-2-ynoyl)-N-(quinolin-8-yl)azetidine-2-carboxamide]"
